Experimental data reported in ChEMBL document CHEMBL3885861, “Open TG-GATES”.

Species on record: Rattus norvegicus
Experiment: Open TG-GATES - Regimen: Daily Repeat
Assay type: toxicity, organism-based, Sprague-Dawley
Set-up: regimen Daily Repeat, gender Male, age 6 weeks
Settings: in vivo, po, route gavage; for Bas / Eos / Hb / Ht / Lym / MCH / MCHC / MCV / Mono / Neu / Plat / RBC / Ret / WBC: tissue Blood; for KIDNEY_L / KIDNEY_R / KIDNEY_TOTAL: tissue Kidney; for LIVER: tissue Liver; for A/G / ALP / ALT / AST / BUN / CRE / Ca / Cl / DBIL / GLC / IP / K / LDH / Na / PL / RALB / TBIL / TC / TG / TP / gamma-GTP: tissue Plasma
[1] = 1000 mg/kg, 72 h, dose level Middle, time 3 day
[2] = 1000 mg/kg, […], dose level Middle, time 7 day
[3] = 1000 mg/kg, […], dose level Middle, time 14 day
[4] = 1000 mg/kg, […], dose level Middle, time 28 day
[5] = 2000 mg/kg, 72 h, dose level High, time 3 day
[6] = 2000 mg/kg, […], dose level High, time 7 day
[7] = 2000 mg/kg, […], dose level High, time 14 day
[8] = 2000 mg/kg, […], dose level High, time 28 day

CC(N)=O [ACETAMIDE]
TERMINAL_BW [1]: 241.7 g
Bas [1]: 0%
Eos [1]: 0.6%
Hb [1]: 12.4 g/dL
Ht [1]: 38.2%
Lym [1]: 75.6%
MCH [1]: 20.1 pg
MCHC [1]: 32.4%
MCV [1]: 62 fL
Mono [1]: 3.8%
Neu [1]: 19%
Plat [1]: 119 x10_4/uL
RBC [1]: 617.4 x10_4/ul
Ret [1]: 7.8%
WBC [1]: 118.5 x10_2/uL
KIDNEY_L [1]: 1 g
KIDNEY_R [1]: 1 g
KIDNEY_TOTAL [1]: 2 g
LIVER [1]: 11.3 g
A/G [1]: 1
ALP [1]: 1645.6 IU/L
ALT [1]: 50.4 IU/L
AST [1]: 84 IU/L
BUN [1]: 17.2 mg/dL
CRE [1]: 0.1 mg/dL
Ca [1]: 10.9 mg/dL
Cl [1]: 104.4 meq/L
DBIL [1]: 0 mg/dL
GLC [1]: 186 mg/dL
IP [1]: 6.7 mg/dL
K [1]: 4.4 meq/L
LDH [1]: 228.8 IU/L
Na [1]: 140.3 meq/L
PL [1]: 161.8 mg/dL
RALB [1]: 2.8 g/dL
TBIL [1]: 0.004 mg/dL
TC [1]: 82.2 mg/dL
TG [1]: 130.3 mg/dL
TP [1]: 5.6 g/dL
gamma-GTP [1]: 0.9 IU/L
TERMINAL_BW [2]: 269.7 g
TERMINAL_BW [3]: 332.5 g
TERMINAL_BW [4]: 409 g
Bas [2]: 0%
Eos [2]: 0.8%
Hb [2]: 13 g/dL
Ht [2]: 39.6%
Lym [2]: 79.2%
MCH [2]: 20 pg
MCHC [2]: 32.8%
MCV [2]: 60.8 fL
Mono [2]: 2.4%
Neu [2]: 17.2%
Plat [2]: 113.6 x10_4/uL
RBC [2]: 650.4 x10_4/ul
Ret [2]: 6.5%
WBC [2]: 128.6 x10_2/uL
Bas [3]: 0%
Eos [3]: 1%
Hb [3]: 13.3 g/dL
Ht [3]: 39.8%
Lym [3]: 81%
MCH [3]: 19.7 pg
MCHC [3]: 33.4%
MCV [3]: 59.2 fL
Mono [3]: 2.8%
Neu [3]: 14.2%
Plat [3]: 118.6 x10_4/uL
RBC [3]: 672.6 x10_4/ul
Ret [3]: 4.8%
WBC [3]: 106.1 x10_2/uL
Bas [4]: 0%
Eos [4]: 1%
Hb [4]: 14.5 g/dL
Ht [4]: 43.1%
Lym [4]: 81.6%
MCH [4]: 18.9 pg
MCHC [4]: 33.7%
MCV [4]: 56.2 fL
Mono [4]: 2.4%
Neu [4]: 14.4%
Plat [4]: 93.5 x10_4/uL
RBC [4]: 767.8 x10_4/ul
Ret [4]: 2.8%
WBC [4]: 140.9 x10_2/uL
KIDNEY_L [2]: 1.2 g
KIDNEY_R [2]: 1.2 g
KIDNEY_TOTAL [2]: 2.4 g
KIDNEY_L [3]: 1.3 g
KIDNEY_R [3]: 1.4 g
KIDNEY_TOTAL [3]: 2.7 g
KIDNEY_L [4]: 1.6 g
KIDNEY_R [4]: 1.6 g
KIDNEY_TOTAL [4]: 3.1 g
LIVER [2]: 11.7 g
LIVER [3]: 14 g
LIVER [4]: 15.5 g
A/G [2]: 1
ALP [2]: 2048.4 IU/L
ALT [2]: 47.4 IU/L
AST [2]: 87.2 IU/L
BUN [2]: 16 mg/dL
CRE [2]: 0.1 mg/dL
Ca [2]: 10.7 mg/dL
Cl [2]: 104.7 meq/L
DBIL [2]: 0 mg/dL
GLC [2]: 186.2 mg/dL
IP [2]: 6.4 mg/dL
K [2]: 4.2 meq/L
LDH [2]: 199 IU/L
Na [2]: 142.7 meq/L
PL [2]: 168 mg/dL
RALB [2]: 2.8 g/dL
TBIL [2]: 0 mg/dL
TC [2]: 83.6 mg/dL
TG [2]: 141.4 mg/dL
TP [2]: 5.7 g/dL
gamma-GTP [2]: 0.7 IU/L
A/G [3]: 0.9
ALP [3]: 1740 IU/L
ALT [3]: 43.8 IU/L
AST [3]: 79.2 IU/L
BUN [3]: 18.4 mg/dL
CRE [3]: 0.2 mg/dL
Ca [3]: 10.5 mg/dL
Cl [3]: 104.6 meq/L
DBIL [3]: 0 mg/dL
GLC [3]: 180.8 mg/dL
IP [3]: 6.4 mg/dL
K [3]: 4.3 meq/L
LDH [3]: 285.4 IU/L
Na [3]: 142.1 meq/L
PL [3]: 153.6 mg/dL
RALB [3]: 2.8 g/dL
TBIL [3]: 0.002 mg/dL
TC [3]: 83 mg/dL
TG [3]: 135.3 mg/dL
TP [3]: 5.7 g/dL
gamma-GTP [3]: 0.7 IU/L
A/G [4]: 0.9
ALP [4]: 1250.4 IU/L
ALT [4]: 48.6 IU/L
AST [4]: 81 IU/L
BUN [4]: 16.8 mg/dL
CRE [4]: 0.2 mg/dL
Ca [4]: 10.3 mg/dL
Cl [4]: 103.7 meq/L
DBIL [4]: 0.006 mg/dL
GLC [4]: 197.2 mg/dL
IP [4]: 5.2 mg/dL
K [4]: 4 meq/L
LDH [4]: 207 IU/L
Na [4]: 142 meq/L
PL [4]: 148.2 mg/dL
RALB [4]: 2.8 g/dL
TBIL [4]: 0.006 mg/dL
TC [4]: 75.2 mg/dL
TG [4]: 122 mg/dL
TP [4]: 6.1 g/dL
gamma-GTP [4]: 0.9 IU/L
TERMINAL_BW [5]: 234.1 g
Bas [5]: 0%
Eos [5]: 0.4%
Hb [5]: 13 g/dL
Ht [5]: 40%
Lym [5]: 78%
MCH [5]: 20.1 pg
MCHC [5]: 32.6%
MCV [5]: 61.7 fL
Mono [5]: 5.2%
Neu [5]: 14.4%
Plat [5]: 119.8 x10_4/uL
RBC [5]: 647.8 x10_4/ul
Ret [5]: 7.6%
WBC [5]: 106.6 x10_2/uL
KIDNEY_L [5]: 1.1 g
KIDNEY_R [5]: 1.1 g
KIDNEY_TOTAL [5]: 2.2 g
LIVER [5]: 10.9 g
A/G [5]: 1
ALP [5]: 1650 IU/L
ALT [5]: 60.6 IU/L
AST [5]: 95.2 IU/L
BUN [5]: 18.4 mg/dL
CRE [5]: 0.1 mg/dL
Ca [5]: 10.9 mg/dL
Cl [5]: 103.7 meq/L
DBIL [5]: 0.006 mg/dL
GLC [5]: 187.4 mg/dL
IP [5]: 7.5 mg/dL
K [5]: 4.2 meq/L
LDH [5]: 200.2 IU/L
Na [5]: 140.6 meq/L
PL [5]: 160.4 mg/dL
RALB [5]: 2.8 g/dL
TBIL [5]: 0.014 mg/dL
TC [5]: 79.2 mg/dL
TG [5]: 94.6 mg/dL
TP [5]: 5.5 g/dL
gamma-GTP [5]: 1 IU/L
TERMINAL_BW [6]: 255.2 g
TERMINAL_BW [7]: 310 g
TERMINAL_BW [8]: 403 g
Bas [6]: 0%
Eos [6]: 1%
Hb [6]: 13.7 g/dL
Ht [6]: 41.1%
Lym [6]: 78.2%
MCH [6]: 19.5 pg
MCHC [6]: 33.4%
MCV [6]: 58.4 fL
Mono [6]: 4%
Neu [6]: 15.2%
Plat [6]: 89.2 x10_4/uL
RBC [6]: 704.6 x10_4/ul
Ret [6]: 4.4%
WBC [6]: 108.9 x10_2/uL
Bas [7]: 0%
Eos [7]: 0.4%
Hb [7]: 14 g/dL
Ht [7]: 41.6%
Lym [7]: 84.8%
MCH [7]: 19.6 pg
MCHC [7]: 33.6%
MCV [7]: 58.2 fL
Mono [7]: 2.4%
Neu [7]: 10.6%
Plat [7]: 101.3 x10_4/uL
RBC [7]: 713.8 x10_4/ul
Ret [7]: 4.1%
WBC [7]: 156.4 x10_2/uL
Bas [8]: 0%
Eos [8]: 0.8%
Hb [8]: 14.8 g/dL
Ht [8]: 44%
Lym [8]: 78.8%
MCH [8]: 19.4 pg
MCHC [8]: 33.8%
MCV [8]: 57.6 fL
Mono [8]: 3%
Neu [8]: 15.6%
Plat [8]: 88.6 x10_4/uL
RBC [8]: 763.8 x10_4/ul
Ret [8]: 2.6%
WBC [8]: 121.1 x10_2/uL
KIDNEY_L [6]: 1.1 g
KIDNEY_R [6]: 1.1 g
KIDNEY_TOTAL [6]: 2.3 g
KIDNEY_L [7]: 1.3 g
KIDNEY_R [7]: 1.3 g
KIDNEY_TOTAL [7]: 2.6 g
KIDNEY_L [8]: 1.5 g
KIDNEY_R [8]: 1.6 g
KIDNEY_TOTAL [8]: 3.1 g
LIVER [6]: 10.6 g
LIVER [7]: 11.7 g
LIVER [8]: 14.4 g
A/G [6]: 1
ALP [6]: 2391.2 IU/L
ALT [6]: 74.6 IU/L
AST [6]: 114.4 IU/L
BUN [6]: 18.5 mg/dL
CRE [6]: 0.2 mg/dL
Ca [6]: 10.5 mg/dL
Cl [6]: 103.1 meq/L
DBIL [6]: 0.02 mg/dL
GLC [6]: 194.8 mg/dL
IP [6]: 5.9 mg/dL
K [6]: 4.2 meq/L
LDH [6]: 251.2 IU/L
Na [6]: 141.3 meq/L
PL [6]: 170.8 mg/dL
RALB [6]: 2.8 g/dL
TBIL [6]: 0.028 mg/dL
TC [6]: 89.8 mg/dL
TG [6]: 94 mg/dL
TP [6]: 5.6 g/dL
gamma-GTP [6]: 1.1 IU/L
A/G [7]: 0.9
ALP [7]: 1866.6 IU/L
ALT [7]: 90.6 IU/L
AST [7]: 159.8 IU/L
BUN [7]: 17.1 mg/dL
CRE [7]: 0.2 mg/dL
Ca [7]: 10.1 mg/dL
Cl [7]: 103.9 meq/L
DBIL [7]: 0.054 mg/dL
GLC [7]: 187.8 mg/dL
IP [7]: 6 mg/dL
K [7]: 4.2 meq/L
LDH [7]: 232.2 IU/L
Na [7]: 141.6 meq/L
PL [7]: 156.2 mg/dL
RALB [7]: 2.7 g/dL
TBIL [7]: 0.07 mg/dL
TC [7]: 87.2 mg/dL
TG [7]: 77.7 mg/dL
TP [7]: 5.5 g/dL
gamma-GTP [7]: 1.6 IU/L
A/G [8]: 0.9
ALP [8]: 1427.6 IU/L
ALT [8]: 55.6 IU/L
AST [8]: 87.4 IU/L
BUN [8]: 18 mg/dL
CRE [8]: 0.2 mg/dL
Ca [8]: 10.2 mg/dL
Cl [8]: 104.2 meq/L
DBIL [8]: 0.01 mg/dL
GLC [8]: 199 mg/dL
IP [8]: 5.3 mg/dL
K [8]: 4.1 meq/L
LDH [8]: 286.2 IU/L
Na [8]: 141.9 meq/L
PL [8]: 136.2 mg/dL
RALB [8]: 2.8 g/dL
TBIL [8]: 0.01 mg/dL
TC [8]: 65.8 mg/dL
TG [8]: 102.2 mg/dL
TP [8]: 6 g/dL
gamma-GTP [8]: 0.8 IU/L
